The source of these data is patent US20150253305A1, “METHODS OF IDENTIFYING COMPOUNDS FOR TREATING DEPRESSION AND OTHER RELATED DISEASES” (NORTHWESTERN UNIVERSITY, priority 2012, published 2015).

The structures appear in SMILES notation. Peptide text beside a SMILES is read from it.

In data set [1] the test system is Sprague-Dawley rats. Nature of the data set: Ketamine drug discrimination. The following applies: FIG. 5: drug discrimination, place preference, prepulse inhibition, open field.
Data set [2] concerns Wnt signaling pathway gene expression. Nature of the data set: Wnt pathway-specific qRT-PCR array in mPFC. It is filed as in vivo, rat. Here is the method: Adult (2-3 month-old) male Sprague-Dawley rats (Harlan Laboratories, Indianapolis, Ind.) were housed 3 to a cage and injected (IV) with one of the following—GLYX-13 (3 mg/kg), ketamine (10 mg/kg), or saline vehicle (1 ml/kg). At 1 and 24 hours after injection (N=5 per time point for each treatment group), rats were sacrificed, their brains were quickly dissected, frozen, and then stored at −80° C. The medial prefrontal cortex (mPFC) was dissected from frozen tissue on ice. An equal volume of the homogenized tissue was used to extract and purify RNA for microarray analysis and to make cDNA for qRT-PCR analysis. All procedures were approved by the Northwestern University IACUC committee and performed in accordance with the NIH Guide for the Care and Use of Laboratory Animals.
Reverse transcription of 1.0 μg of DNAsed, total RNA from 4 rats was primed with oligo(dT) and random hexamers. We utilized SuperScriptIII according to manufacturer's specifications (Invitrogen, Carlsbad, Calif.). A 1:10 dilution of cDNA was used as a template for quantitative real-time PCR, and the analysis was performed with Brilliant SYBR Green qRT-PCR Master Mix (Stratagene) on a Mx3000P Real-Time PCR System. ROX reference dye was included in all reactions. […]

Data set [3] concerns Sprague-Dawley rats. Nature of the data set: Open field locomotor activity (line crosses). To be noted: 0.1 μg, 20 min following MPFC infusion.
The subject of data set [4] is Sprague-Dawley rats. Nature of the data set: Porsolt test. To be noted: IV.

In the case of `C[C@@H](O)[C@H](N)C(=O)N1CCC[C@H]1C(=O)N1CCC[C@H]1C(=O)N[C@H](C(N)=O)[C@@H](C)O` [GLYX-13, L-threonyl-L-prolyl-L-prolyl-L-threonine amide] (H-TPPT-NH2), in the data set on Sprague-Dawley rats [1], the “ketamine-like addictive sensory motor gating, or sedative side effects” value is listed as “does not show ketamine-like addictive sensory motor gating, or sedative side effects”.
`CNC1(c2ccccc2Cl)CCCCC1=O` (stereo not drawn) [Ketamine, ketamine]: the “number of genes downregulated (Wnt qRT-PCR array)” value in data set [2] (1 and 24 hrs following administration, 10 mg/kg IV, mPFC) worked out at 1 gene. Moreover, the “Frizzled 2 (Fzd) gene expression (Wnt qPCR array)” value in data set [2] (following injection, relative to vehicle control rats) is reported as “Significant gene expression changes”. The “locomotor activity (line crosses in the open field) following MPFC infusion” value with Sprague-Dawley rats [3] was “increased locomotor activity”. In addition, in the data set on Sprague-Dawley rats [4] (10 mg/kg), the “anti-depressant effect in the Porsolt test” value is “produces a long-lasting anti-depressant effect”. For the same molecule, the “rapid antidepressant-like effects in the Porsolt test” value in the data set on Sprague-Dawley rats [4] (rat) is listed as “produce rapid antidepressant-like effects”.
